{
  "source": "patent US12144886B2",
  "about": "“Perineural administration of resiniferatoxin for treatment of maladaptive pain” (Sorrento Therapeutics, Inc., priority 2018, dated 2024)",
  "key": {"[1]": {"system": "declawed cat with maladaptive pain", "experiment": "Tolerance and safety of perineural RTX in a single declawed cat", "assay_type": "in vivo", "experimental": "The safety of the injection of RTX is assessed by comparing the results of a complete blood count (CBC) and a chemistry panel done at screening with the results obtained at day 14. Cats were also monitored for adverse events.\n(§1) Tolerance, safety, and analgesic effects of RTX administration were evaluated in a single declawed cat with maladaptive pain. […] The cat also presented a self-limiting decreased appetite for 12 hours post injection."}, "[2]": {"system": "declawed cats with chronic distal thoracic limb pain", "experiment": "QoL and pain monitoring (CSOMf, FMPI, owner reports) in open-label trial of perineural RTX in declawed cats", "assay_type": "in vivo, cat", "experimental": "Cats suffering from severe bilateral chronic pain (more than 90 days) as a result of severe complications after onychectomy were enrolled in this study (an exploratory, open-label, multicenter clinical trial). Thirteen (13) cases were treated for initial pain and reduced quality of life (QoL). Then, bilateral perineural distal limb injections (ring block technique) were administered under general anesthesia (a combination of diphenhydramine, buprenorphine, dexmedetomidine, ketamine, and isoflurane). Following a published technique (Enomoto et al., 2016) for the nerve block of the manus of the cat, the total dose of RTX was equally distributed adjacent to the 1) superficial branch of the radial nerve, 2) dorsal branch of the ulnar nerve, 3) median nerve and superficial branch of the palmar branch of the ulnar nerve, and 4) deep branch of palmar branch of the ulnar nerve. A total of 2.5 ug (1.25 ug/1 mL per forelimb in Group 1, n=7) and 5 ug (2.5 ug/1 mL per forelimb in Group 2, n=6) of RTX was injected as a one-time treatment. Group 2 included the cat for which detailed results are provided in Example B above. Monitoring of QoL and pain for the following 28 days was accomplished using the Client-Specific Outcome Measures feline (CSOMf), the Feline Musculoskeletal Pain Index (FMPI), two post-injection physical examinations, and videography on days 3, 7, 14, and 28 post injections."}, "[3]": {"system": "declawed cat with maladaptive pain", "experiment": "Physical exam and behavioral findings in a declawed cat after perineural RTX", "assay_type": "in vivo", "settings": "one cat", "experimental": "as §1\nA summary of the pre- and post-RTX injection physical exam results relevant to pain related to the declawed digits are presented in Table 4.\nAdditionally, the cat had shown elimination behavior issues, aggressivity when manipulated, and diminished attention seeking before treatment. Each of these behavioral issues related to the chronic maladaptive pain state reversed following the perineural administration of RTX, even though the cat was believed to have been in pain for years prior to this treatment."}, "[4]": {"system": "Crl:CD(SD) Sprague Dawley rats", "experiment": "Single dose nerve block injection safety study in rats with 14-day recovery", "assay_type": "in vivo, rat", "settings": "for Food consumption: Days 2 to 7", "excerpt": "This study was directed to determining the safety of administering RTX, when given as a nerve block injection as a single dose to rats.\n119 male and 119 female Crl:CD(SD) Sprague Dawley rats were obtained from Charles River Laboratories, Raleigh, NC. The animals were 10 weeks old and weighed between 212 and 482 g at the initiation of dosing.\nThe nerve block injection doses were given into the right thigh. The animals were temporarily restrained for dose administration. Animals were sedated via isoflurane inhalation for dose administration. The day of dosing for each animal was designated as Day 1. A necropsy was conducted for a recovery study animal that died on study, and specified tissues were retained. The animal was refrigerated prior to necropsy to minimize autolysis.\nToxicokinetic animals surviving until scheduled euthanasia were euthanized by carbon dioxide inhalation.\nMain study and recovery animals were subjected to a complete necropsy examination. A board-certified veterinary pathologist was available for scheduled necropsies.\nAll statistical tests were conducted at the 5% significance level. All pairwise comparisons were conducted using two-sided tests.\nThe groups were compared using an overall one-way ANOVA F-test if Levene's test was not significant or the Kruskal-Wallis test if it was significant. […] Datasets with two groups were compared using a Dunnett's test (equivalent to t-test in Nevis 2012 tables) or Dunn's test (equivalent to Wilcoxon Rank-Sum test in Nevis 2012 tables)."}, "[5]": {"settings": "one cat, 2.5 μg/forelimb perineural"}, "[6]": {"settings": "10 μg, both sexes, terminal euthanasia"}},
  "data": [
    {"smiles": "C=C(C)[C@]12C[C@@H](C)[C@@]34O[C@](Cc5ccccc5)(O[C@@H]1[C@@H]3C=C(COC(=O)Cc1ccc(O)c(OC)c1)C[C@]1(O)C(=O)C(C)=C[C@@H]41)O2", "note": "[RTX, resiniferatoxin]", "values": [
      {"measurement": "Allergic-like reactions", "setting": "[1]; one cat", "value": "No signs of allergic-like reactions were observed"},
      {"measurement": "Edema or pain in the injected areas", "setting": "[1]; one cat", "value": "no signs of edema or pain were present"},
      {"measurement": "Resolution of adverse events (panting, salivation)", "setting": "[1]; one cat", "value": "resolved within two hours"},
      {"measurement": "Complications during RTX administration", "setting": "[1]; [5]", "value": "No complications were observed"},
      {"measurement": "Tolerability of injection", "setting": "[1]; [5]", "value": "generally well tolerated"},
      {"measurement": "Adverse events", "setting": "[1]; one hour post-injection", "value": "panting and salivation"},
      {"measurement": "Duration of self-limiting decreased appetite", "setting": "[1]; post injection, one cat", "value": 12, "unit": "h"},
      {"measurement": "CSOMf and FMPI scores", "setting": "[2]; 28-day monitoring period, 13 cats", "value": "clear improvement"},
      {"measurement": "Owner-reported natural and pathological adopted behaviors (QoL)", "setting": "[2]; both groups", "value": "significant changes"},
      {"measurement": "Duration of improvements reported informally", "setting": "[2]; in some cases", "value": "over 6 months"},
      {"measurement": "Treatment of distal thoracic limb pain", "setting": "[2]; perineural injections, cats", "value": "can effectively treat"},
      {"measurement": "Behavioral issues (elimination behavior issues, aggressivity when manipulated, diminished attention seeking)", "setting": "[3]; following perineural administration", "value": "reversed"},
      {"measurement": "Overall conclusion from CSOM and FMPI scores", "setting": "[3]; 2.5 μg/forelimb perineural", "value": "safe and effective"},
      {"measurement": "Persistence of effects", "setting": "[3]; 2.5 μg/forelimb perineural", "value": "at least 14 days"},
      {"measurement": "Food consumption", "setting": "[4]; 2.5 μg, females only", "value": "statistically significant decrease"},
      {"measurement": "Unscheduled death", "setting": "[4]; 2.5 μg, one recovery study female, unrelated to test article, attributed to aspiration-related foreign material/inflammation in the lung", "value": "found dead on Day 2"},
      {"measurement": "Microscopic change in the skeletal muscle", "setting": "[4]; 10 μg", "value": "myofiber degeneration/necrosis"},
      {"measurement": "Spleen microscopic correlate", "setting": "[4]; 10 μg, both sexes", "value": "minimal decreased lymphoid cellularity of the white pulp"},
      {"measurement": "Thymus microscopic correlate", "setting": "[4]; 10 μg, both sexes", "value": "minimal to mild decreased lymphoid cellularity"},
      {"measurement": "Spleen weights", "setting": "[4]; [6]", "value": "Statistically significant lower absolute and relative spleen weights"},
      {"measurement": "Thymic weights", "setting": "[4]; [6]", "value": "Lower absolute and relative thymic weights"},
      {"measurement": "Neutrophils", "setting": "[4]; 10 μg, females only", "value": "statistically significant increase that remained increased after the recovery period"},
      {"measurement": "Mean body weight gain", "setting": "[4]; 10 μg, females, Days 1 to 14", "value": "statistically significant decrease"},
      {"measurement": "Food consumption", "setting": "[4]; 10 μg, males only", "value": "statistically significant decrease"},
      {"measurement": "Mean body weight gain", "setting": "[4]; 10 μg, males, Days 1 to 2", "value": "statistically significant decrease"},
      {"measurement": "Microscopic change in the mammary gland (non-adverse)", "setting": "[4]; >2.5 μg", "value": "single cell necrosis"},
      {"measurement": "Test article-related organ weight changes at end of recovery", "setting": "[4]; end of the recovery period (Day 15)", "value": "not observed"},
      {"measurement": "Reversibility of microscopic changes", "setting": "[4]; following a 14-day recovery period", "value": "fully recovered"},
      {"measurement": "Clinical chemistry parameters", "setting": "[4]; rats", "value": "no adverse RTX (resiniferatoxin)-related changes"},
      {"measurement": "Tolerability as nerve block injection", "setting": "[4]; rats, 0.625, 2.5, and 10 μg single dose", "value": "well tolerated"},
      {"measurement": "Differences in hematology, coagulation, clinical chemistry and urinalysis parameters", "setting": "[4]; rats, all dose groups", "value": "not considered adverse or were not considered vehicle or test article related"},
      {"measurement": "no-observed-adverse-effect level (NOAEL)", "setting": "[4]; rats, single nerve block injection", "value": 10, "unit": "µg"},
      {"measurement": "Mortality, organ weight, gross observations", "setting": "[4]; single dose 0, 0.625, 2.5, or 10 μg", "value": "no test article-related mortality, differences in organ weight, or gross observations"},
      {"measurement": "Gross findings", "setting": "[4]; terminal euthanasia or recovery period animals", "value": "No test article-related gross findings"}
    ]}
  ]
}
